Values of other authors, collected in patent US20100267624A1 (priority 2007, published 2010).
Structures can show the parent of a compound that is named as a salt.

CN[C@H](CC(C)C)C(=O)N[C@H]1C(=O)N[C@@H](CC(N)=O)C(=O)N[C@H]2C(=O)N[C@H]3C(=O)N[C@H](C(=O)N[C@H](C(=O)O)c4cc(O)cc(O)c4-c4cc3ccc4O)[C@H](O)c3ccc(c(Cl)c3)Oc3cc2cc(c3O[C@@H]2O[C@H](CO)[C@@H](O)[C@H](O)[C@H]2O[C@H]2C[C@](C)(N)[C@H](O)[C@H](C)O2)Oc2ccc(cc2Cl)[C@H]1O [Vancomycin Hydrochloride]
solubility in organic solvents (organic solvents): poorly soluble | solubility in water (water): very soluble
